Holding throughout (assay): biochemical
The target in one assay is T1, BMPR2 (Homo sapiens, UniProt Q13873).
T1 sequence (Q13873 1-1038): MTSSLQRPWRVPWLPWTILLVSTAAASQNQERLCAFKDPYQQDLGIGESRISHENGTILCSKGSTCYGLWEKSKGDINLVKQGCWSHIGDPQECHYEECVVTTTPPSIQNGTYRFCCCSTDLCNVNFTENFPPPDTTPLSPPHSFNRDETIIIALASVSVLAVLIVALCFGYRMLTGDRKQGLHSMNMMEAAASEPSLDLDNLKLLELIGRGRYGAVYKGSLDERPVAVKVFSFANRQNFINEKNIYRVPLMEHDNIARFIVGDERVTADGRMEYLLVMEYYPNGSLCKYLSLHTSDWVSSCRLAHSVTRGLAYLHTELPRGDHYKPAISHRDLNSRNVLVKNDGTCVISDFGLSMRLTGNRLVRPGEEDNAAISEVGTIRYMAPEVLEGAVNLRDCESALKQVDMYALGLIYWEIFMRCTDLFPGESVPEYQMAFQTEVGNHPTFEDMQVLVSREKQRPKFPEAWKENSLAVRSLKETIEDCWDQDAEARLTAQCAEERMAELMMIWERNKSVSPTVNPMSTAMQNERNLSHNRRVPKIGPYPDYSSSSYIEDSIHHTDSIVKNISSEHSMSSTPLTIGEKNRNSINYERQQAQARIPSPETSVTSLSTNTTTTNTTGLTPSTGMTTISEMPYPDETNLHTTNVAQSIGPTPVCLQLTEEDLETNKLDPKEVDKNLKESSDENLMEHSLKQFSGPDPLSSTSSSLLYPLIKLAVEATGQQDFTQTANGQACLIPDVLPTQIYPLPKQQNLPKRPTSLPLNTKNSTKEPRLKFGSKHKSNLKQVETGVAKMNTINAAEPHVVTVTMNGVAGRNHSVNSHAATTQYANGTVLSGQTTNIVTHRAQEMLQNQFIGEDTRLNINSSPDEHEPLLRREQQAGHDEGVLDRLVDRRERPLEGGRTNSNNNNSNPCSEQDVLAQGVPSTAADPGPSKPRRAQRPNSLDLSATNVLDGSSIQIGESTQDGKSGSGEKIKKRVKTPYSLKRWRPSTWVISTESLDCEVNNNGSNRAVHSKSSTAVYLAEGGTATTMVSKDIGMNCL
On the set-up: DiscoveRx KINOMEscan active site-directed competition binding; percent of control kinase bound to immobilised ligand.

Another assay concerns the target T2, DCAMKL1 (Homo sapiens, UniProt O15075).
T2 construct: gene DCLK1
T2 sequence (O15075 1-740): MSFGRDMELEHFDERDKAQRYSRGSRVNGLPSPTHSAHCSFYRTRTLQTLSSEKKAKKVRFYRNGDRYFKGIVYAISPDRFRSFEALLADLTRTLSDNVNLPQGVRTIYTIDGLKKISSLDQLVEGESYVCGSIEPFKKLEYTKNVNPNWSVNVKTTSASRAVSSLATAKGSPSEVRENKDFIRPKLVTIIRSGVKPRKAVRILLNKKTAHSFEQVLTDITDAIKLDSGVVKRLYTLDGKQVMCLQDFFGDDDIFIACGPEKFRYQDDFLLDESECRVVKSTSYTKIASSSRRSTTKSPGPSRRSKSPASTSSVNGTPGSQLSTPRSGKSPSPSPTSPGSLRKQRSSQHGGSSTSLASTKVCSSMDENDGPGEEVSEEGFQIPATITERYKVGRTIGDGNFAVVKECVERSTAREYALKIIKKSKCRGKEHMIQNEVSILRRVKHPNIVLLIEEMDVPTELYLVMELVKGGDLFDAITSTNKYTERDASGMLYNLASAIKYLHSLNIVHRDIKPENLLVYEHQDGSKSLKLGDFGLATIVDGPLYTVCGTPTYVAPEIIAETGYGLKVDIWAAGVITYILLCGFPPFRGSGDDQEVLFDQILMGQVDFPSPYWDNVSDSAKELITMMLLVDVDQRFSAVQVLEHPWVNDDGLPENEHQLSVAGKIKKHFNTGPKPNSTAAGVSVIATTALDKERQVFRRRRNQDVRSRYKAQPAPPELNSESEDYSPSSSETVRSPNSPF
Also on record: DiscoveRx KINOMEscan active site-directed competition binding; percent of control kinase bound to immobilised ligand.

In a further assay the target is DYRK1B (Homo sapiens, UniProt Q9Y463). On the set-up: DiscoveRx KINOMEscan active site-directed competition binding; percent of control kinase bound to immobilised ligand. Particulars: for remaining binding at 10 µM: binding competition, % of control. Here is the method: (§1) The DiscoveRx KinomeScan platform (https://www.discoverx.com), utilizing an in vitro active site-directed competition binding assay, was used to quantitatively measure interactions between the four clinical PARP inhibitors and their largest available kinase panel. At the time when the assays were performed (date: 29/11/2016), 468 in vitro binding assays were available, corresponding to 392 unique human kinases (76% of the human kinome)[39] (Supplementary Table 5). To follow up the computational analysis, we performed a comprehensive in vitro kinome screen. To do this we employed the DiscoveRx (https://www.discoverx.com) KinomeScan in vitro binding technology[37],[38] that has been widely used for kinome profiling in drug discovery. At the time of conducting our screen, this kinome panel was the largest commercially available and comprised 468 in vitro binding assays corresponding to 392 unique human kinases (76% of the human kinome)[39] (Supplementary Table 5). Also included were assays comprising mutated, deleted, phosphorylated or autoinhibited forms of proteins (n = 63), secondary or pseudokinase domains (n = 8), non-human isoforms (n = 3) and CDK complexes with different cyclins (n = 2) (Supplementary Table 5). The assays were performed at a single relatively high concentration of 10 μM to identify initially both low and high potency off-targets. The results of our use of the in vitro binding assay for kinome profiling reveal marked differences between the kinase polypharmacology of PARP inhibitors. […] The binding technology used involves a competition assay, defining activity as ≥65% of the kinase being competed off an immobilised ligand at 10 μM[38].
Chain of DYRK1B (Q9Y463 whole entry): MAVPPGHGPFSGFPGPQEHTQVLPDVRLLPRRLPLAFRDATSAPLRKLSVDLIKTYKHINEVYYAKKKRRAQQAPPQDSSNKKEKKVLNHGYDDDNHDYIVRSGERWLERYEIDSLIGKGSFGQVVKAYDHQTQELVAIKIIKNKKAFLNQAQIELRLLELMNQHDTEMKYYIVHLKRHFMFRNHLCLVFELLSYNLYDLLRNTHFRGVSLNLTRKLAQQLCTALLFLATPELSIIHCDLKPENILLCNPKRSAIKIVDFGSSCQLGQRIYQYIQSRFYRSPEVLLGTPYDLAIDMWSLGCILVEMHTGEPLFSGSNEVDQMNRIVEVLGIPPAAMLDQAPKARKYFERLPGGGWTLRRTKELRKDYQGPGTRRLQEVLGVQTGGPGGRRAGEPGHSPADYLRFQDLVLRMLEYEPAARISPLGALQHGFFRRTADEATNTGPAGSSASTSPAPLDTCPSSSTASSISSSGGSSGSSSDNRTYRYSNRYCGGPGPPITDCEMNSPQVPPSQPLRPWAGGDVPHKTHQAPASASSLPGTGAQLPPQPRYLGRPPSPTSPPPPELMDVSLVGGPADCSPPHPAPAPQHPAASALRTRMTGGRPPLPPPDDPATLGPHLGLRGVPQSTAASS

For another assay, the target named is LTK (Homo sapiens, UniProt P29376). On the set-up: DiscoveRx KINOMEscan active site-directed competition binding; percent of control kinase bound to immobilised ligand. Particulars: for remaining binding at 10 µM: binding competition, % of control. As for the experimental part:
as §1

The target of a further assay is CDK4-cyclinD3 (Homo sapiens, UniProt P11802). Also on record: cyclinD3; DiscoveRx KINOMEscan active site-directed competition binding; percent of control kinase bound to immobilised ligand.
Chain of CDK4-cyclinD3 (P11802 whole entry): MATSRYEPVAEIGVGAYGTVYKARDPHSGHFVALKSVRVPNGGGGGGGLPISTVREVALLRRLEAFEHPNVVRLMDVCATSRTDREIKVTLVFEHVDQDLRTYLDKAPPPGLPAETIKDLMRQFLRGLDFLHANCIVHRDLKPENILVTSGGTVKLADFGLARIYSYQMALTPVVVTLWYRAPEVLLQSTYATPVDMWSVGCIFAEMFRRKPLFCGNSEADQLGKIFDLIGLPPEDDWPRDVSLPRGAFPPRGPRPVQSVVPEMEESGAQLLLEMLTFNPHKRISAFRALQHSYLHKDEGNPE
Chain of CDK4-cyclinD3 (P30281 whole entry partner): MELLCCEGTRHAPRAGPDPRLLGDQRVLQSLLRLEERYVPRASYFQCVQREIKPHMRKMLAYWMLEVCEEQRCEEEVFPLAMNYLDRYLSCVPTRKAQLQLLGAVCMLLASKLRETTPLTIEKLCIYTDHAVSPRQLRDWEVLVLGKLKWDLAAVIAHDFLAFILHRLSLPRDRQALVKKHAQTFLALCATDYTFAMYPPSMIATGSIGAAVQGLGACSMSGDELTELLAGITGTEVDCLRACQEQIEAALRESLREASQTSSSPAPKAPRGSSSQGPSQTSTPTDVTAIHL
For the next assay, the target named is STK33 (Homo sapiens, UniProt Q9BYT3). Also on record: DiscoveRx KINOMEscan active site-directed competition binding; percent of control kinase bound to immobilised ligand. Particulars: for remaining binding at 10 µM: binding competition, % of control. As for the experimental part: as §1
Chain of STK33 (Q9BYT3 whole entry): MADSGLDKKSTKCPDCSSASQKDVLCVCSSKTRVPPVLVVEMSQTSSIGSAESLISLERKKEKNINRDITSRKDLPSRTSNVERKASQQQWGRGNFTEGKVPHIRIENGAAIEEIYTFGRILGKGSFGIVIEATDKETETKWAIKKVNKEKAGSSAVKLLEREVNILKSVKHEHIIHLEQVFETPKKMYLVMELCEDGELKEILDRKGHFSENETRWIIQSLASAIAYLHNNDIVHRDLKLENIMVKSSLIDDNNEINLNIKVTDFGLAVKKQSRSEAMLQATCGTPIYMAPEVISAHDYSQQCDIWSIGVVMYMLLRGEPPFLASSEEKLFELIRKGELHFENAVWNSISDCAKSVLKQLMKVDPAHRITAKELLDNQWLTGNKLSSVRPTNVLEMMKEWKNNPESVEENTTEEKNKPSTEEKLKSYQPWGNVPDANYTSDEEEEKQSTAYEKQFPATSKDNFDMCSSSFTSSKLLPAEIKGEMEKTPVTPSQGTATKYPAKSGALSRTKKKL
Setting [1] is: read-out: Niraparib (MK-4827) / %Ctrl @ 10000nM.
The mark [2] stands for this setting: read-out: Niraparib (MK-4827) / %Ctrl @ 10000nM, binding competition.
The mark [3] stands for this setting: read-out: Olaparib / %Ctrl @ 10000nM.
Setting [4] is: read-out: Rucaparib / %Ctrl @ 10000nM, binding competition, % of control.
Where [5] appears, read: read-out: Rucaparib / %Ctrl @ 10000nM, binding competition.
The mark [6] stands for this setting: read-out: Talazoparib (BMN 673) / %Ctrl @ 10000nM.

Like-named read-outs stand apart in the source and are kept apart here.

Chain of LTK (P29376 whole entry): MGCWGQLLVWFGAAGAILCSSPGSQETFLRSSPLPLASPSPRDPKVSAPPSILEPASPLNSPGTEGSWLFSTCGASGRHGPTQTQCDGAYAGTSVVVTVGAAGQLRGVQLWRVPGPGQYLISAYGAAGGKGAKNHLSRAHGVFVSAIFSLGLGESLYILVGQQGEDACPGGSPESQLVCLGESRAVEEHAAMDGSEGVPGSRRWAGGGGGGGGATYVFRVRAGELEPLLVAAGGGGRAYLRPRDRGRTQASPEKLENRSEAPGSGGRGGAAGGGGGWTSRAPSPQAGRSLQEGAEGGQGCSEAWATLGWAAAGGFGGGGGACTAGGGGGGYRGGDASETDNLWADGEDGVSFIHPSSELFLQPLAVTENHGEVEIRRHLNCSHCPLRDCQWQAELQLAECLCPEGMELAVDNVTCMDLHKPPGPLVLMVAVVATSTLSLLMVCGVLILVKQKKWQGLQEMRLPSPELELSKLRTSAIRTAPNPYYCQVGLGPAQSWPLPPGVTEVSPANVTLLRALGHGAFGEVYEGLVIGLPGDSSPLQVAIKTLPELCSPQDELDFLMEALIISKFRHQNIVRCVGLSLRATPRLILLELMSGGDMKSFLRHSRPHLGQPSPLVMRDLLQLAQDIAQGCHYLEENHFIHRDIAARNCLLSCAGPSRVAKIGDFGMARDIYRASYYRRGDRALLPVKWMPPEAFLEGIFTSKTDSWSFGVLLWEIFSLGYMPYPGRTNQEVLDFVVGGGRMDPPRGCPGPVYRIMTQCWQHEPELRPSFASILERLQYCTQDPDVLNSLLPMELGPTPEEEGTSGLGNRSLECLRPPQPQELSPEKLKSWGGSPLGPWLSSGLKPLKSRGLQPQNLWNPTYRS

As for `NC(=O)c1cccc2cn(-c3ccc([C@@H]4CCCNC4)cc3)nc12` [Niraparib], the percent of control binding at 10 µM came to 96% on BMPR2 (setting [1]), 89% at DCAMKL1 (setting [1]) and 38% on CDK4-cyclinD3 (setting [1]). For the same compound, the percent of control kinase binding at 10 µM on DYRK1B (setting [2]) worked out at 0%; on LTK (setting [2]) it was 71%.

On to `O=C(c1cc(Cc2n[nH]c(=O)c3ccccc23)ccc1F)N1CCN(C(=O)C2CC2)CC1` [Olaparib], for which the percent of control binding at 10 µM was 80% on BMPR2 (setting [3]), 100% on DCAMKL1 (setting [3]) and 95% on CDK4-cyclinD3 (setting [3]). The results for the remaining binding at 10 µM on DYRK1B (setting [3]), at LTK (setting [3]) and on STK33 (setting [3]) were 97%, 93% and 100%, respectively.

As for `CNCc1ccc(-c2[nH]c3cc(F)cc4c3c2CCNC4=O)cc1` [Rucaparib], the values for the percent of control binding at 10 µM at BMPR2 (setting [4]), at DCAMKL1 (setting [4]) and at CDK4-cyclinD3 (setting [4]) were 83%, 78% and 12%, respectively. The percent of control kinase binding at 10 µM on DYRK1B (setting [5]) amounted to 5.7%; at LTK (setting [5]), 89%; at STK33 (setting [5]), 89%.

As to `Cn1ncnc1[C@H]1c2n[nH]c(=O)c3cc(F)cc(c23)N[C@@H]1c1ccc(F)cc1` [Talazoparib], the figures for the percent of control binding at 10 µM at BMPR2 (setting [6]), on DCAMKL1 (setting [6]) and at CDK4-cyclinD3 (setting [6]) were 100%, 90% and 99%, respectively. Further, the remaining binding at 10 µM on DYRK1B (setting [6]) was 95%; on LTK (setting [6]), 91%; at STK33 (setting [6]) it was 99%.

The values above are taken from publication PMC7026418, “The kinase polypharmacology landscape of clinical PARP inhibitors” (Scientific Reports, 2020).
